Data published in patent US11958842B2, “Substituted phenazines and methods of treating cancer and bacterial diseases” (Adjutec Pharma AS, priority 2016, dated 2024).
Values after ≈ are worked out from the molar mass of the structure shown. Where two headings read alike, the source gives them in different places.

Key:
[1] = test system: vancomycin-resistant E. faecium vanA A1-22; assay: Microbroth dilution MIC; assay type: cell-based; conditions: compound alone
Procedure: (§1) Day 1: • Plate bacterial strain(s) on appropriate media: • Gram-negative bacteria with ESBLs or carbapenemases: green agar plates with 100 mg/L ampicillin • Gram-negative bacteria without β-lactamases: green agar plates • Gram-positive bacteria (Staphylococci and Enterococci): blood agar plates • Incubate o.n. at 37° C.
(§2) Prepare the Bacterial Inoculum: • Prepare a 0.5 McFarland suspension of bacteria in 0.85% NaCl. (Should be used within 15 min of preparation). • Dilute the 0.5 McFarland suspension 1:100 into MH broth.
(§3) Check the inoculum by diluting the prepared bacterial suspension 1:100 (10 μl bacterial suspension+990 μl 0.85% NaCl). Plate 10 μl of the dilution on MH agar plates (×2). Incubate o.n. at 37° C., count the colonies and calculate the final CFU/ml inoculum in the plate by multiplying the average number of colonies with 10000 and divide by 2. The final inoculum should be between 3-7×10^5 CFU/ml. • Add 50 μl of the prepared bacterial suspension to each well in the microtiter plate except negative growth control.
(§4) Preparation of Compounds/Antibiotics • Calculate the desired concentration-range and volume of the compounds/antibiotics in the assay. For antibiotics this will depend on the MIC to meropenem of the bacterial strains to be tested. Dilute the stock solution in MH broth. Make subsequent 2-fold dilutions in MH broth of the desired concentrations if a concentration range is to be tested (remember the extra dilution factor in the assay plate). Always include extra volume for pipetting. Take into consideration stock solutions that are made in buffers that have an effect on bacterial growth (e.g. DMSO).
(§5) This experimental design was used for the results in Tables 4 and 5 below. In Table 4, inhibitor concentration dependency on the MIC of meropenem was studied.

[2] = test system: methicillin-resistant S. aureus MRSA A4-37; assay: Microbroth dilution MIC; assay type: cell-based; conditions: compound alone
Procedure: as §1, §2, §3, §4, §5

Molm13 cells = assay: Anti-AML activity, WST-1 viability (Example 72); assay type: cell-based; conditions: Homo sapiens
Procedure, shortened: (§6)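 Rat IPC-81 cells in DMEM with 10% horse serum and Molm13 cells in RPMI with 10% FBS, seeded at 150 000 cells/ml with compound dilution series. After 22 h exposure, WST-1 added for a further 2 h; absorbance read at 450 nm (620 nm reference) as viability.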

[3] = Parallel artificial membrane permeability assay (PAMPA); conditions: PAMPA, 50 μM in PBS, room temperature, five hours
Procedure: The Corning Gentest™ pre-Coated parallel artificial membrane permeability assay PAMPA Plate System was from Cording Discovery Labware (Bedford, USA). The compounds were tested in room temperature at 50 μM using PBS as buffer. A total of 300 μl of the compound solution was added to each well of the donor plate, and 200 μl of PBS was added to the receiver filter plate. After incubation for five hours, 50 μl of the donor or acceptor well were injected into a reversed phase HPLC column (Kromasil 100-5 C18 150-4.6 mm, Akzo Nobel, Sweden) connected to a Merck-Hitachi LaChrome HPLC-system (VWR, WestChester, USA) with a L-7455 diode array detector. Mobile phase A was 0.05% aqueous TFA, and mobile phase B was acetonitrile. The flow rate was 1.6 ml/min and compounds eluted between 1 and 4.5 minutes was eluted during a 6.5 min gradient from 90:10% mobile phase A:B to 0:100% mobile phase A:B. The ratio of the compound concentrations in the donor and acceptor compartment was calculated after integration of the peaks at 285 nm. Peff was calculated as described in [Bennion B J, Be N A, McNerney M W, Lao V, Carlson E M, Valdez C A, et al. Predicting a Drug's Membrane Permeability: A Computational Model Validated With in Vitro Permeability Assay Data. The journal of physical chemistry B. 2017; 121(20):5228-37.]. Membrane permeability were classified by the range defined by Bennion et al., allowing for us to divide the compounds into four groups, compounds with high permeability (LogPeff>−5.33), intermediate permeability (LogPeff>−5.66 and <−5.33), low permeability (LogPeff>−6.14 and <−5.66) impermeable (LogPeff<−6.14).

[4] = test system: normal rat kidney epithelial (NRK) cells; assay: Cytotoxicity, WST-1 and nuclear morphology (Example 73); assay type: cell-based; conditions: Rattus norvegicus
Procedure, shortened: (§7)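 MOLM-13 (RPMI/FBS), NRK and H9c2 (DMEM/10% FBS) cells under 2% or 20% O2 at 37° C were exposed to analogues for 24 h (≤1% DMSO). Viability was read by WST-1, and cell death by Hoechst 33342 nuclear morphology; EC50 came from four-parameter regression.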

[5] = test system: human acute myeloid leukemia cell line MOLM-13; assay: as above; assay type: cell-based
Procedure, shortened: as §7

[6] = test system: rat cardiomyoblast (H9c2) cells; assay: as above; assay type: cell-based; conditions: H9c2, 19% O2, 24 hours of incubation, read-out: EC50 (μM) H9c2 19% O2
Procedure, shortened: as §7

IPC-81 rat AML cells = assay: Anti-AML activity, WST-1 viability (Example 72); assay type: cell-based; conditions: IPC81, IPC-81 cells
Procedure, shortened: as §6

A.baumannii/OXA-23 = assay: Microbroth dilution MIC; assay type: cell-based; conditions: Acinetobacter baumannii; S7 A.baumannii/OXA-23; substance alone
Procedure: as §1, §2, §3, §4, §5

K. pneumoniae/NDM-1 = assay: Microbroth dilution MIC; assay type: cell-based; conditions: Klebsiella pneumoniae; S4 K. pneumoniae/NDM-1; substance alone
Procedure: as §1, §2, §3, §4, §5

K. pneumoniae/KPC-2 = assay: Microbroth dilution MIC; assay type: cell-based; conditions: Klebsiella pneumoniae; S6 K. pneumoniae/KPC-2; substance alone
Procedure: as §1, §2, §3, §4, §5

P. aeruginosa/VIM-2 = assay: Microbroth dilution MIC; assay type: cell-based; conditions: Pseudomonas aeruginosa, read-out: MIC alone
Procedure: as §1, §2, §3, §4, §5

E. coli/OXA-48 = assay: Microbroth dilution MIC; assay type: cell-based; conditions: Escherichia coli, read-out: MIC alone
Procedure: as §1, §2, §3, §4, §5

hepG2 = assay: Cytotoxicity (Example 73, Table 2); assay type: cell-based; conditions: Homo sapiens, read-out: EC50 (μM) hepG2
[7] = Molm 13 cells, 2% O2, 24 h of incubation, WST-1, read-out: Molm 13 IC50 2% O2
[8] = Molm 13 cells, 20% O2, 24 h of incubation, WST-1, read-out: Molm 13 IC50 20% O2
[9] = 2% O2, 24 hours of incubation, read-out: EC50 (μM) NRK 2% O2
[10] = 19% O2, 24 hours of incubation, read-out: EC50 (μM) NRK 19% O2
[11] = Homo sapiens, MOLM-13, 2% O2, 24 hours of incubation, read-out: EC50 (μM) MOLM-13 2% O2
[12] = Homo sapiens, MOLM-13, 19% O2, 24 hours of incubation, read-out: EC50 (μM) MOLM-13 19% O2
[13] = MOLM-13, 24 h, read-out: Molm 13 IC50 20% O2
[14] = 24 h, read-out: EC50 (μM) NRK 2% O2, NRK, 2% O2, 24 hours of incubation
[15] = 24 h, read-out: EC50 (μM) NRK 19% O2, NRK, 19% O2, 24 hours of incubation
[16] = MOLM-13, 2% O2, 24 hours of incubation, read-out: EC50 (μM) MOLM-13 2% O2
[17] = MOLM-13, 19% O2, 24 hours of incubation, read-out: EC50 (μM) MOLM-13 19% O2

| SMILES | MIC A1-22 E. faecium vanA [1] [µg/mL] | MIC A4-37 S. aureus MRSA [2] [µg/mL] | IC50 (Molm13 cells; [8]) [nM] | EC50 [4, 9] [µM] | EC50 [4, 10] [µM] | EC50 [5, 11] [µM] | EC50 [5, 12] [µM] | EC50 ([6]; Rattus norvegicus) [µM] | EC50 [4, 14] [µM] | EC50 [4, 15] [µM] | EC50 [5, 16] [µM] | EC50 [5, 17] [µM] | EC50 [6] [µM] | also measured |
| --- | --- | --- | --- | --- | --- | --- | --- | --- | --- | --- | --- | --- | --- | --- |
| CC(C)(C)OC(=O)COc1cccc2c1[n+]([O-])c1cccc(O)c1[n+]2[O-] [Example 5b, 1-(2-(tert-butoxy)-2-oxoethoxy)-6-hydroxyphenazine 5,10-dioxide] | 8 (≈ 22.3 µM) | < 0.5 | 1770 | 53 | 53 ± 1.5 | 2.4 ± 0.16 | 2.9 ± 0.34 | 42 ± 5.8 | – | – | – | – | – | IC50 (Molm13 cells; [7]): 1650 nM; LogPeff [3]: −5.33 |
| COc1cccc2c1[n+]([O-])c1cccc(OC(C)=O)c1[n+]2[O-] [Example 5e, 1-Acetoxy-6-methoxyphenazine 5,10-dioxide] | – | – | 1500 | – | – | – | – | – | – | – | – | – | – | IC50 (IPC-81 rat AML cells; 2% O2, 24 h of incubation, WST-1, read-out: IPC-81 IC50 2% O2): 1700 nM; IC50 (IPC-81 rat AML cells; 20% O2, 24 h of incubation, WST-1, read-out: IPC-81 IC50 20% O2): 1800 nM; IC50 (Molm13 cells; [7]): 1450 nM |
| CCOC(=O)COc1cccc2c1[n+]([O-])c1ccccc1[n+]2[O-] [Example 6a, 1-(2-ethoxy-2-oxoethoxy)phenazine 5,10-dioxide] | 4 (≈ 12.7 µM) | < 0.5 | 110 | 25 ± 0.2 | 26 ± 0.8 | 1.7 ± 0.29 | 1.5 ± 0.14 | 20 ± 2.9 | – | – | – | – | – | MIC (A.baumannii/OXA-23): 5 µg/mL (≈ 15.9 µM); MIC (K. pneumoniae/NDM-1): 19.6 µg/mL (≈ 62.4 µM); MIC (K. pneumoniae/KPC-2): 9.7 µg/mL (≈ 30.9 µM); MIC (P. aeruginosa/VIM-2): 39.3 µg/mL (≈ 125 µM); MIC (E. coli/OXA-48): 2.5 µg/mL (≈ 7.95 µM); EC50 (hepG2; hepG2, 24 hours of incubation): 75 µM |
| CCOC(=O)COc1cccc2c1[n+]([O-])c1cc(Br)c(Br)cc1[n+]2[O-] [Example 6d, 7,8-dibromo-1-(2-ethoxy-2-oxoethoxy)phenazine 5,10-dioxide] | 8 (≈ 16.9 µM) | 16 (≈ 33.9 µM) | – | 9.7 ± 2.4 | 10 ± 0.7 | 1.6 ± 0.09 | 2.4 ± 0.03 | 3.3 ± 0.5 | – | – | – | – | – | EC50 (hepG2; hepG2, 24 hours of incubation): 65 µM |
| CN1CCN(C(=O)Oc2cccc3c2[n+]([O-])c2ccccc2[n+]3[O-])CC1 [Example 8c, 1-((4-methylpiperazine-1-carbonyl)oxy)phenazine 5,10-dioxide] | 8 (≈ 22.6 µM) | < 4 | – | – | – | – | – | – | 37 ± 1.9 | 25 ± 0.2 | 1.9 ± 0.05 | 1.5 ± 0.18 | 36 ± 11 | IC50 (Molm13 cells; [13]): 350 nM |
| CCN(CC)C(=O)Oc1cccc2c1[n+]([O-])c1cccc(O)c1[n+]2[O-] [Example 8i, 1-((diethylcarbamoyl)oxy)-6-hydroxyphenazine 5,10-dioxide] | 8 (≈ 23.3 µM) | < 4 | – | – | – | – | – | – | – | – | – | – | – | IC50 (Molm13 cells; MOLM-13, 24 h, read-out: Molm 13 IC50 2% O2): 740 nM; IC50 (Molm13 cells; [13]): 760 nM |
| COc1cccc2c1[n+]([O-])c1cccc(OC(=O)N3CCCC3)c1[n+]2[O-] [Example 8l, 1-methoxy-6-((pyrrolidine-1-carbonyl)oxy)phenazine 5,10-dioxide] | 63 (≈ 177 µM) | < 4 | – | – | – | – | – | – | 35 ± 1.5 | 32 ± 2.5 | 1.8 ± 0.17 | 2 ± 0.11 | 35 ± 3.3 | EC50 (hepG2; HepG2, 24 h): 110 µM |
| COc1cccc2c1[n+]([O-])c1cccc(OC(=O)N(C)C)c1[n+]2[O-] [Example 8m, 1-((dimethylcarbamoyl)oxy)-6-methoxyphenazine 5,10-dioxide] | 63 (≈ 191 µM) | < 4 | – | – | – | – | – | – | 29 ± 0.7 | 22 ± 1.7 | 1.7 ± 0.09 | 1.9 ± 0.07 | 35 ± 1.8 | – |
| COc1cccc2c1[n+]([O-])c1ccccc1[n+]2[O-] [Example 18, 1-methoxyphenazine 5,10-dioxide] | 32 (≈ 132 µM) | < 2 | – | – | – | – | – | – | – | – | – | – | – | – |
